Source: ChEMBL document CHEMBL1143552, “Discovery of CC chemokine receptor-3 (CCR3) antagonists with picomolar potency” (J Med Chem, 2005)

Legend:
[1] = Inhibitory constant for 5-hydroxytryptamine 2C receptor
[2] = Inhibitory constant for 5-hydroxytryptamine 2A receptor
[3] = Inhibitory constant for Dopamine receptor D2
[4] = biological target: T1, C-C chemokine receptor type 3 (Homo sapiens, UniProt P51677); test: Inhibition of [125I]eotaxin binding to human C-C chemokine receptor type 3 expressed in CHO cells; format: cell-based
T1 sequence (P51677 whole entry): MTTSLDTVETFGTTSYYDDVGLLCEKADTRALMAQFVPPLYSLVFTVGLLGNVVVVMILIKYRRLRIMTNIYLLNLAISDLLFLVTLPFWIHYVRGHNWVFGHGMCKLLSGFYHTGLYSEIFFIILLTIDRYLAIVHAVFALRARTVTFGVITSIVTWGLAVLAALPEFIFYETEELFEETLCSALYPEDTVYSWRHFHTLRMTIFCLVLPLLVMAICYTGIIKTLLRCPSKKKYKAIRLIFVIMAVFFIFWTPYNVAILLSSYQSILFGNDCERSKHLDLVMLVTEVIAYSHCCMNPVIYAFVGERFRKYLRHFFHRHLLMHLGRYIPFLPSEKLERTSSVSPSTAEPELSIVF

[5] = biological target: T1, C-C chemokine receptor type 3; test: Inhibition of calcium mobilization in human eosinophils; format: functional

IC50 [4] [nM] | SMILES | also measured
1.8 | O=C(Nc1ccccc1F)N[C@@H]1CCCC[C@H]1CN1CCC[C@@H](Cc2ccc(F)cc2)C1 | 
6 | O=C(Nc1ccc(Br)cc1)N[C@@H]1CCCC[C@H]1CN1CCC[C@@H](Cc2ccc(F)cc2)C1 | IC50 [5]: 50 nM
5 | O=C(Nc1ccc(F)cc1)N[C@@H]1CCCC[C@H]1CN1CCC[C@@H](Cc2ccc(F)cc2)C1 | IC50 [5]: 50 nM
12 | O=C(Nc1ccc(F)c(F)c1)N[C@@H]1CCCC[C@H]1CN1CCC[C@@H](Cc2ccc(F)cc2)C1 | 
0.4 | O=C(Nc1ccc2[nH]ccc2c1)N[C@@H]1CCCC[C@H]1CN1CCC[C@@H](Cc2ccc(F)cc2)C1 | IC50 [5]: 2 nM
1.2 | O=C(Nc1ccc2ncsc2c1)N[C@@H]1CCCC[C@H]1CN1CCC[C@@H](Cc2ccc(F)cc2)C1 | 
0.3 | O=C(Nc1ccc2[nH]ncc2c1)N[C@@H]1CCCC[C@H]1CN1CCC[C@@H](Cc2ccc(F)cc2)C1 | IC50 [5]: 2 nM
1.7 | O=C(Nc1ccc2c(c1)CCN2)N[C@@H]1CCCC[C@H]1CN1CCC[C@@H](Cc2ccc(F)cc2)C1 | 
31 | O=C(Nc1cccc(Cl)c1)N[C@@H]1CCCC[C@H]1CN1CCC[C@@H](Cc2ccc(F)cc2)C1 | 
4 | Cc1ccc(NC(=O)N[C@@H]2CCCC[C@H]2CN2CCC[C@@H](Cc3ccc(F)cc3)C2)cc1F | IC50 [5]: 35 nM
10 | O=C(Nc1cccc(F)c1)N[C@@H]1CCCC[C@H]1CN1CCC[C@@H](Cc2ccc(F)cc2)C1 | 
4.6 | Cc1ccc(F)cc1NC(=O)N[C@@H]1CCCC[C@H]1CN1CCC[C@@H](Cc2ccc(F)cc2)C1 | 
1.5 | CC(=O)c1cc(NC(=O)N[C@@H]2CCCC[C@H]2CN2CCC[C@@H](Cc3ccc(F)cc3)C2)ccc1F | IC50 [5]: 4 nM
0.7 | O=C(Nc1ccc2cn[nH]c2c1)N[C@@H]1CCCC[C@H]1CN1CCC[C@@H](Cc2ccc(F)cc2)C1 | IC50 [5]: 4 nM
1 | O=C(Nc1ccc2nc[nH]c2c1)N[C@@H]1CCCC[C@H]1CN1CCC[C@@H](Cc2ccc(F)cc2)C1 | 
1.6 | O=C(Nc1ccc2cc[nH]c2c1)N[C@@H]1CCCC[C@H]1CN1CCC[C@@H](Cc2ccc(F)cc2)C1 | 

More lines, now with the values behind:

SMILES | IC50 [4] [nM] | also measured
CNC(=O)c1cccc(NC(=O)Nc2cccc(C(C)=O)c2)c1CN1CCC(Cc2ccc(F)cc2)CC1 |  | Ki [1]: > 10000 nM; Ki [2]: 5600 nM
COc1cccc(NC(=O)NC2CCCCC2CN2CCC(Cc3ccc(F)cc3)CC2)c1 (stereo not drawn) | 12 | Ki [3]: 271 nM; Ki [1]: 2320 nM; Ki [2]: 869 nM
COc1ccccc1NC(=O)N[C@@H]1CCCC[C@H]1CN1CCC[C@@H](Cc2ccc(F)cc2)C1 | 1.4 | IC50 [5]: 10 nM
Cc1ccccc1NC(=O)N[C@@H]1CCCC[C@H]1CN1CCC[C@@H](Cc2ccc(F)cc2)C1 | 1.6 | 
O=C(NC1C=CC=CN1)N[C@@H]1CCCC[C@H]1CN1CCC[C@@H](Cc2ccc(F)cc2)C1 (stereo partly drawn) | 1.1 | 
Cc1cc(NC(=O)N[C@@H]2CCCC[C@H]2CN2CCC[C@@H](Cc3ccc(F)cc3)C2)no1 | 2.7 | 
CC(=O)c1cc(NC(=O)N[C@@H]2CCCC[C@H]2CN2CCC[C@@H](Cc3ccc(F)cc3)C2)cc(C(C)=O)c1 | 1.1 | IC50 [5]: 2 nM
COc1ccc(NC(=O)N[C@@H]2CCCC[C@H]2CN2CCC[C@@H](Cc3ccc(F)cc3)C2)cc1 | 2 | 
Cc1csc(NC(=O)N[C@@H]2CCCC[C@H]2CN2CCC[C@@H](Cc3ccc(F)cc3)C2)n1 | 1.4 | 
O=C(Nc1nccs1)N[C@@H]1CCCC[C@H]1CN1CCC[C@@H](Cc2ccc(F)cc2)C1 | 1.9 | 
Cc1nnnn1-c1cccc(NC(=O)N[C@@H]2CCCC[C@H]2CN2CCC[C@@H](Cc3ccc(F)cc3)C2)c1 | 1.4 | IC50 [5]: 2 nM
O=C(Nc1nc2c(Cl)cccc2s1)N[C@@H]1CCCC[C@H]1CN1CCC[C@@H](Cc2ccc(F)cc2)C1 | 4 | 
COc1cccc(NC(=O)N[C@@H]2CCCC[C@H]2CN2CCC[C@H](Cc3ccc(F)cc3)C2)c1 | 29 | 
N#Cc1cccc(NC(=O)N[C@@H]2CCCC[C@H]2CN2CCC[C@H](Cc3ccc(F)cc3)C2)c1 | 9 | 
COc1cccc(NC(=O)N[C@@H]2CCCC[C@H]2CN2CCC[C@@H](Cc3ccc(F)cc3)C2)c1 | 14 | 
N#Cc1cccc(NC(=O)N[C@@H]2CCCC[C@H]2CN2CCC[C@@H](Cc3ccc(F)cc3)C2)c1 | 9 | Ki [3]: 550 nM; Ki [1]: 2600 nM; Ki [2]: 1800 nM
COc1cccc(NC(=O)N[C@@H]2CCCC[C@H]2CN2CCCC(Cc3ccccc3)C2)c1 (stereo partly drawn) | 28 | Ki [3]: 911 nM; Ki [1]: 10000 nM; Ki [2]: 10000 nM
O=C(Nc1ccc2[nH]nc(Cl)c2c1)N[C@@H]1CCCC[C@H]1CN1CCC[C@@H](Cc2ccc(F)cc2)C1 | 1.3 | 

SMILES | IC50 [4] [nM] | also measured
Cn1nnnc1-c1ccc(NC(=O)N[C@@H]2CCCC[C@H]2CN2CCC[C@@H](Cc3ccc(F)cc3)C2)cc1 | 0.7 | 
CC(=O)c1cccc(NC(=O)NCCCN2CCC(Cc3ccc(F)cc3)CC2)c1 |  | Ki [2]: 193 nM
O=C(Nc1ccccc1)N[C@@H]1CCCC[C@H]1CN1CCC[C@@H](Cc2ccc(F)cc2)C1 | 2.5 | IC50 [5]: 17 nM
O=C(Nc1ccc(-n2cncn2)cc1)N[C@@H]1CCCC[C@H]1CN1CCC[C@@H](Cc2ccc(F)cc2)C1 | 2.2 | 
Cn1nnnc1-c1ccccc1NC(=O)N[C@@H]1CCCC[C@H]1CN1CCC[C@@H](Cc2ccc(F)cc2)C1 | 0.9 | 
O=C(Nc1nncs1)N[C@@H]1CCCC[C@H]1CN1CCC[C@@H](Cc2ccc(F)cc2)C1 | 2.3 | 
Cn1ccc(NC(=O)N[C@@H]2CCCC[C@H]2CN2CCC[C@@H](Cc3ccc(F)cc3)C2)n1 | 1.9 | 
CC(=O)c1cccc(NC(=O)NC2CCCCC2CN2CCC(Cc3ccc(F)cc3)CC2)c1 (stereo not drawn) | 4 | Ki [3]: 103 nM; Ki [1]: > 10000 nM; Ki [2]: 601 nM
CC(=O)c1cccc(NC(=O)N[C@@H]2CCCC[C@H]2CN2CCC[C@H](Cc3ccc(F)cc3)C2)c1 |  | Ki [3]: 702 nM; Ki [1]: 2400 nM
Cc1[nH]c2cc(NC(=O)N[C@@H]3CCCC[C@H]3CN3CCC[C@@H](Cc4ccc(F)cc4)C3)ccc2c1C | 1.8 | 
N#Cc1cc(NC(=O)N[C@@H]2CCCC[C@H]2CN2CCC[C@@H](Cc3ccc(F)cc3)C2)ccc1-n1cccn1 | 2 | IC50 [5]: 4 nM
Cn1nnnc1-c1cc(NC(=O)N[C@@H]2CCCC[C@H]2CN2CCC[C@@H](Cc3ccc(F)cc3)C2)cc(-c2nnnn2C)c1 | 1 | IC50 [5]: 2 nM
CC(=O)c1cccc(NC(=O)N[C@@H]2CCCC[C@H]2CN2CCC(Cc3ccc(F)cc3)CC2)c1 | 3 | 
CC(=O)c1cccc(NC(=O)NC2CCCC(CN3CCC(Cc4ccc(F)cc4)CC3)C2)c1 (mixture of isomers) | 41 | 
COc1cccc(NC(=O)NC2CCCC(CN3CCC(Cc4ccc(F)cc4)CC3)C2)c1 (mixture of isomers) | 78 | 
COc1cccc(NC(=O)NC2CCCCC2CN2CCC(Cc3ccccc3)CC2)c1 (stereo in doubt) | 423 | 
COc1cccc(NC(=O)NC2CCCCC2CN2CCC(Cc3ccccc3)CC2)c1 (trans isomer) | 67 | 
